Source: patent publication US11439709B2, “Phospholipid ether analogs as cancer-targeting drug vehicles” (Cellectar Biosciences, Inc., priority 2014, dated 2022)

Experiments:
[1] = tested on: MDA-MB-468 cells; test: Annexin V / PI flow cytometry, MDA-MB-468 cells
Method: (§1) Annexin V and PI ([…]) staining by flow cytometry was utilized to determine percentages of live, early apoptotic, late apoptotic, and necrotic cells. In short, cells were treated with cytotoxic agents and stained with an Annexin V/P1 labeling kit (Life Technologies). Cells were analyzed on an LSRII flow cytometer (BD Biosciences). As shown in Tables 3-9, cells were classified as: Live (Annexin V negative, PI negative), Early apoptotic (Annexin V positive, PI negative), Late apoptotic (Annexin V positive, PI positive), and Necrotic. (Annexin V negative, PI positive). […] Annexin V (attached to AlexaFluor 488) is shown on the x-axis, while PI is shown on the y-axis. The lower left quadrant indicates live cells, the upper left quadrant indicates necrotic cells, the upper right quadrant indicates late apoptotic cells and the lower right quadrant indicates early apoptotic cells. Debris was eliminated from this analysis.

[2] = tested on: MDA-MB-468, NCI-H1299, NCI-H460, Capan-2, MiaPaCa-1, HT29, HCT116 and PC-3 cancer cell lines; test: Cell viability of the cancer cell line panel (result in words); type: cell-based; settings: eight cancer cell lines, serial concentrations
Method: (§2) The cell lines were then measured for cell viability and reported as IC50 for each treatment.

[3] = tested on: NCI-H460 (Lung); test: cells; type: cell-based; settings: cell viability
Method: as §2

[4] = tested on: NCI-H1299 (Lung); test: cells; type: cell-based; settings: NCI-HI1299 (Lung), cell viability
Method: as §2

[5] = tested on: HCT116 (Colorectal); test: cells; type: cell-based
Method: as §2

[6] = tested on: PC-3 (Prostate); test: cells; type: cell-based; settings: cell viability
Method: as §2

[7] = tested on: MDA-MB-468 (Breast); test: cells; type: cell-based; settings: cell viability
Method: as §2

[8] = tested on: Capan-2 (Pancreas); test: cells; type: cell-based; settings: cell viability
Method: as §2

[9] = tested on: MiaPaCa-1 (Pancreas); test: cells; type: cell-based; settings: cell viability
Method: as §2

[10] = tested on: HT29 (Colorectal); test: cells; type: cell-based
Method: as §2

[11] = tested on: 22RV1 cells; test: Annexin V / PI flow cytometry, 22RV1 cells; type: cell-based; settings: GEL for 48 hours
Method: as §1

[12] = tested on: PANC-1 cells; test: Annexin V / PI flow cytometry, PANC-1 cells; type: cell-based; settings: GEL for 48 hours
Method: as §1

[13] = tested on: COLO 829 cells; test: Annexin V / PI flow cytometry, COLO 829 cells; type: cell-based
Method: as §1

[14] = 1 uM, GEL for 48 hours, Table 4 titled 72 Hours
[15] = 100 nM, GEL for 48 hours, Table 5
[16] = 1 uM, GEL for 48 hours, Table 5
[17] = 100 nM, PTX for 24 hours, Table 3 titled 72 Hours
[18] = 1 uM, PTX for 24 hours, Table 3 titled 72 Hours

CC(=O)O[C@H]1C(=O)[C@@]2(C)[C@H]([C@H](OC(=O)c3ccccc3)[C@]3(O)C[C@H](OC(=O)[C@H](OC(=O)CCCC(=O)Nc4ccc(CCCCCCCCCCCCCCCCCCOP(=O)([O-])OCC[N+](C)(C)C)cc4)[C@@H](NC(=O)c4ccccc4)c4ccccc4)C(C)=C1C3(C)C)[C@]1(OC(C)=O)CO[C@@H]1C[C@@H]2O [CLR1601]
Early Apoptotic ([1]; 1 uM, 48 hrs (Table 8)): 1.49 % of total cells | Late Apoptotic ([1]; 1 uM, 48 hrs (Table 8)): 6 % of total cells | Live (cell viability) ([1]; 1 uM, 48 hrs (Table 8)): 79.4 % of total cells | Necrotic ([1]; 1 uM, 48 hrs (Table 8)): 13.1 % of total cells | Early Apoptotic ([1]; 1 uM, 72 hrs): 9.8 % of total cells | Late Apoptotic ([1]; 1 uM, 72 hrs): 57.5 % of total cells | Live (cell viability) ([1]; 1 uM, 72 hrs): 17 % of total cells | Necrotic ([1]; 1 uM, 72 hrs): 15.8 % of total cells | Early Apoptotic ([1]; 5 uM, 72 hrs): 2.71 % of total cells | Late Apoptotic ([1]; 5 uM, 72 hrs): 57.9 % of total cells | Live (cell viability) ([1]; 5 uM, 72 hrs): 17.8 % of total cells | Necrotic ([1]; 5 uM, 72 hrs): 21.6 % of total cells | reduction of cancer cell line viability [2]: capable of reducing cell viability | IC50 [3]: 29.5 nM | IC50 [4]: 60.3 nM | IC50 ([5]; cell viability): 7.6 nM | IC50 [6]: 34.4 nM | IC50 [7]: 3.77 nM | IC50 [8]: 56.7 nM | IC50 [9]: 37.3 nM | IC50 ([10]; cell viability): 92.2 nM

CC(=O)O[C@H]1C(=O)[C@]2(C)[C@@H](OC(=O)NCCCC(=O)Nc3ccc(CCCCCCCCCCCCCCCCCCOP(=O)([O-])OCC[N+](C)(C)C)cc3)C[C@H]3OC[C@@]3(OC(C)=O)[C@H]2[C@H](OC(=O)c2ccccc2)[C@]2(O)C[C@H](OC(=O)[C@H](O)[C@@H](NC(=O)c3ccccc3)c3ccccc3)C(C)=C1C2(C)C [CLR1602]
reduction of cancer cell line viability [2]: not capable of significantly reducing cancer cell line viability

CC(=O)O[C@H]1C(=O)[C@@]2(C)[C@H]([C@H](OC(=O)c3ccccc3)[C@]3(O)C[C@H](OC(=O)[C@H](OC(=O)OCCCCC(=O)Nc4ccc(CCCCCCCCCCCCCCCCCCOP(=O)([O-])OCC[N+](C)(C)C)cc4)[C@@H](NC(=O)c4ccccc4)c4ccccc4)C(C)=C1C3(C)C)[C@]1(OC(C)=O)CO[C@@H]1C[C@@H]2O [CLR1603]
Early Apoptotic ([1]; 1 uM, 48 hrs (Table 8)): 1.4 % of total cells | Late Apoptotic ([1]; 1 uM, 48 hrs (Table 8)): 4.78 % of total cells | Live (cell viability) ([1]; 1 uM, 48 hrs (Table 8)): 81.4 % of total cells | Necrotic ([1]; 1 uM, 48 hrs (Table 8)): 12.4 % of total cells | Early Apoptotic ([1]; 1 uM, 72 hrs): 6.74 % of total cells | Late Apoptotic ([1]; 1 uM, 72 hrs): 49.1 % of total cells | Live (cell viability) ([1]; 1 uM, 72 hrs): 22.2 % of total cells | Necrotic ([1]; 1 uM, 72 hrs): 22 % of total cells | Early Apoptotic ([1]; 5 uM, 72 hrs): 2.65 % of total cells | Late Apoptotic ([1]; 5 uM, 72 hrs): 55.2 % of total cells | Live (cell viability) ([1]; 5 uM, 72 hrs): 19.7 % of total cells | Necrotic ([1]; 5 uM, 72 hrs): 22.5 % of total cells | reduction of cancer cell line viability [2]: capable of reducing cell viability

COC1=C2C[C@@H](C)C[C@H](OC)[C@H](O)[C@@H](C)/C=C(\C)[C@H](OC(N)=O)[C@@H](OC)/C=C\C=C(/C)C(=O)NC(=CC1=O)C2=O [GEL, geldanamycin]
Early Apoptotic [1, 14]: 19.6 % of total cells | Late Apoptotic [1, 14]: 37.9 % of total cells | Live (cell viability) [1, 14]: 26.2 % of total cells | Necrotic [1, 14]: 16.3 % of total cells | Early Apoptotic ([11]; 100 nM): 5.09 % of total cells | Late Apoptotic ([11]; 100 nM): 28.4 % of total cells | Live (cell viability) ([11]; 100 nM): 19.4 % of total cells | Necrotic ([11]; 100 nM): 47.1 % of total cells | Early Apoptotic ([11]; 1 uM): 6.22 % of total cells | Late Apoptotic ([11]; 1 uM): 19.1 % of total cells | Live (cell viability) ([11]; 1 uM): 28.1 % of total cells | Necrotic ([11]; 1 uM): 46.6 % of total cells | Early Apoptotic ([12]; 100 nM): 4.68 % of total cells | Late Apoptotic ([12]; 100 nM): 12.6 % of total cells | Live (cell viability) ([12]; 100 nM): 23.3 % of total cells | Necrotic ([12]; 100 nM): 59.4 % of total cells | Early Apoptotic ([12]; 1 uM): 1.93 % of total cells | Late Apoptotic ([12]; 1 uM): 12.8 % of total cells | Live (cell viability) ([12]; 1 uM): 18.9 % of total cells | Necrotic ([12]; 1 uM): 66.4 % of total cells | Early Apoptotic ([13]; 100 nM, 48 hrs (Table 9)): 12.2 % of total cells | Late Apoptotic ([13]; 100 nM, 48 hrs (Table 9)): 29 % of total cells | Live (cell viability) ([13]; 100 nM, 48 hrs (Table 9)): 36.1 % of total cells | Necrotic ([13]; 100 nM, 48 hrs (Table 9)): 22.7 % of total cells | Early Apoptotic [13, 15]: 21.9 % of total cells | Late Apoptotic [13, 15]: 40.8 % of total cells | Live (cell viability) [13, 15]: 32.4 % of total cells | Necrotic [13, 15]: 4.9 % of total cells | Early Apoptotic ([13]; 1 uM, 48 hrs (Table 9)): 14.4 % of total cells | Late Apoptotic ([13]; 1 uM, 48 hrs (Table 9)): 38.3 % of total cells | Live (cell viability) ([13]; 1 uM, 48 hrs (Table 9)): 24.6 % of total cells | Necrotic ([13]; 1 uM, 48 hrs (Table 9)): 22.7 % of total cells | Early Apoptotic [13, 16]: 21.4 % of total cells | Late Apoptotic [13, 16]: 53.7 % of total cells | Live (cell viability) [13, 16]: 18.6 % of total cells | Necrotic [13, 16]: 6.42 % of total cells

CC(=O)O[C@H]1C(=O)[C@@]2(C)[C@H]([C@H](OC(=O)c3ccccc3)[C@]3(O)C[C@H](OC(=O)[C@H](O)[C@@H](NC(=O)c4ccccc4)c4ccccc4)C(C)=C1C3(C)C)[C@]1(OC(C)=O)CO[C@@H]1C[C@@H]2O [Paclitaxel, paclitaxel]
Early Apoptotic ([1]; 100 nM, 48 hrs (Table 8)): 2.47 % of total cells | Late Apoptotic ([1]; 100 nM, 48 hrs (Table 8)): 5.54 % of total cells | Live (cell viability) ([1]; 100 nM, 48 hrs (Table 8)): 77.9 % of total cells | Necrotic ([1]; 100 nM, 48 hrs (Table 8)): 14.1 % of total cells | Early Apoptotic [1, 17]: 5.9 % of total cells | Late Apoptotic [1, 17]: 31.4 % of total cells | Live (cell viability) [1, 17]: 53.8 % of total cells | Necrotic [1, 17]: 8.89 % of total cells | Early Apoptotic ([1]; 1 uM, 48 hrs (Table 8)): 1.97 % of total cells | Late Apoptotic ([1]; 1 uM, 48 hrs (Table 8)): 9.18 % of total cells | Live (cell viability) ([1]; 1 uM, 48 hrs (Table 8)): 73.3 % of total cells | Necrotic ([1]; 1 uM, 48 hrs (Table 8)): 15.6 % of total cells | Early Apoptotic [1, 18]: 5.5 % of total cells | Late Apoptotic [1, 18]: 34.8 % of total cells | Live (cell viability) [1, 18]: 48.9 % of total cells | Necrotic [1, 18]: 10.8 % of total cells | IC50 ([3]; Homo sapiens): 1.66 nM | IC50 ([4]; Homo sapiens, NCI-H1299): 1.82 nM | IC50 ([5]; Homo sapiens, HCT-116, cell viability): 0.87 nM | IC50 [6]: 0.9 nM | IC50 ([7]; Homo sapiens): 1.9 nM | IC50 ([8]; Homo sapiens): 7.91 nM | IC50 [9]: 1.32 nM | IC50 ([10]; Homo sapiens, HT-29, cell viability): 1.07 nM
